In PMC8523698, “Preclinical characterization of an intravenous coronavirus 3CL protease inhibitor for the potential treatment of COVID19” (Nature Communications, 2021):
Several values for one entry are separate records, joined by “and”; a condition that tells them apart may be missing. Identical values can stand only once. Like-named read-outs stand apart in the source and are kept apart here.

How the values were obtained:
[1] = target: HKU4-CoV 3CL^pro (Bat coronavirus HKU4, UniProt P0C6W3); format: biochemical; conditions: for Initial Velocity: triplicate, listed as Compound F2
[2] = target: HIV-1 protease (Human immunodeficiency virus type 1 group M subtype B, UniProt P04585); assay: Mammalian protease panel; format: biochemical
Method: (§1) The respective protease in assay buffer (50 mM Tris with 100 mM sodium chloride and Brij 35 at pH = 8 except for cathepsin D pH = 3.5 and HIV pH = 5.5) was added to assay ready compound plates. The enzymatic reaction was initiated with the addition of indicated substrate in assay buffer. Initial rates were measured by following the fluorescence of the cleaved substrate (Ex/Em 355/460 […]) using a Spectramax (Molecular Devices) fluorescence plate reader in the kinetic format.
(§2) IC50 values were generated based on a four-parameter logistic fit model using ActivityBase software (IDBS). Percent activity values were calculated based on control wells containing no compound (100% activity) and wells containing a control compound (0% activity).

[3] = target: Human Cathepsin B (Homo sapiens, UniProt P07858); assay: Mammalian protease panel; format: biochemical
Method: as §1, §2

[4] = target: Human Elastase (Homo sapiens, UniProt P08246); assay: Mammalian protease panel; format: biochemical
Method: as §1, §2

[5] = test system: Human Chymotrypsin; assay: Mammalian protease panel; format: biochemical
[6] = target: Human Caspase 2 (Homo sapiens, UniProt P42575); assay: Mammalian protease panel; format: biochemical
[7] = target: T1, CYP2B6 (Homo sapiens, UniProt P20813); assay: Reversible CYP inhibition in human liver microsomes; format: in vitro ADME; conditions: for activity at 0.1 µM: pH 7.4, CYP 2B6, 0.1 µM; for activity at 0.1 µM / activity at 0.214 µM / activity at 0.979 µM / activity at 2.09 µM / activity at 4.48 µM / activity at 20.5 µM / activity at 43.8 µM / activity at 93.5 µM / activity at 200 µM: read-out: Percent of Control Activity; for activity at 0.214 µM: pH 7.4, CYP 2B6, 0.214 µM; for activity at 0.979 µM: pH 7.4, CYP 2B6, 0.979 µM; for activity at 2.09 µM: pH 7.4, CYP 2B6, 2.09 µM; for activity at 4.48 µM: pH 7.4, CYP 2B6, 4.48 µM; for activity at 20.5 µM: pH 7.4, CYP 2B6, 20.5 µM; for activity at 43.8 µM: pH 7.4, CYP 2B6, 43.8 µM; for activity at 93.5 µM: pH 7.4, CYP 2B6, 93.5 µM; for activity at 200 µM: pH 7.4, CYP 2B6, 200 µM
T1 sequence (P20813 1-491): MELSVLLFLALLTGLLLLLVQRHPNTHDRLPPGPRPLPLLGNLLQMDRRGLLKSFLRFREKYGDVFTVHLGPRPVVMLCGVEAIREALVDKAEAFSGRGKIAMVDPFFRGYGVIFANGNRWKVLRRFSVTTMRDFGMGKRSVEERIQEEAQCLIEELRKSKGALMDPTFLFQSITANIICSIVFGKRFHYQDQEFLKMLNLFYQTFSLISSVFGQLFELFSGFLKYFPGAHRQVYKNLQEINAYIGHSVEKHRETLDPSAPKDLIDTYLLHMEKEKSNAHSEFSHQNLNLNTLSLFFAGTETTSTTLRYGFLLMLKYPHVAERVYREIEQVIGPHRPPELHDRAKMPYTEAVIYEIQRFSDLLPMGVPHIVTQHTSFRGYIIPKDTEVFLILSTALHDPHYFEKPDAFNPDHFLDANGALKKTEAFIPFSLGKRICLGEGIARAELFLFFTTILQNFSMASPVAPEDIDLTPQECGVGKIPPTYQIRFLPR

[8] = test system: SARS-CoV-2; conditions: cited from earlier work
[9] = LogD shake-flask measurement at pH 7.4; conditions: 1-octanol/0.1 M sodium phosphate buffer
[10] = PBPK modeling (Simcyp) of DDI with itraconazole
[11] = 300 mg/kg dose group
[12] = Dog pharmacokinetic study; conditions: for clearance / half-life / Vd: male, Beagle, dog, plasma, iv; for Vd: Vdss
[13] = human, human liver microsomes, 30-Minute Preincubation
[14] = human, human liver microsomes, Zero-Minute Preincubation

Chain of HKU4-CoV 3CL^pro (P0C6W3 3292-3597 limits assumed): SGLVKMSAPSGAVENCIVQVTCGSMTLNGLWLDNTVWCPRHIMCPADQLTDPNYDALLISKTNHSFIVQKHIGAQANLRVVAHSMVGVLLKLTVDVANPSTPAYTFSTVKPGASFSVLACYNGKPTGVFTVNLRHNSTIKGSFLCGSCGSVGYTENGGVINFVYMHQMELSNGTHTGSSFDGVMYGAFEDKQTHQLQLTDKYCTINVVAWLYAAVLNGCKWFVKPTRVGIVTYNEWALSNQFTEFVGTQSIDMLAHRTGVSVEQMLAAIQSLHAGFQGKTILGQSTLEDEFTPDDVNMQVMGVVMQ
Chain of Human Elastase (P08246 30-247 limits assumed): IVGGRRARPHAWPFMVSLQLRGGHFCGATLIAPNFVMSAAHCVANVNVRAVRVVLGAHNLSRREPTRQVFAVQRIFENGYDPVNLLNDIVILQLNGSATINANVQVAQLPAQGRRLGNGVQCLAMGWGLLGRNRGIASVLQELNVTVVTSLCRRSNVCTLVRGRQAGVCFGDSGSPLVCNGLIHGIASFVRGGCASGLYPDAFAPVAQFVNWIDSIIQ
Chain of Human Caspase 2 (P42575 170-325 limits assumed): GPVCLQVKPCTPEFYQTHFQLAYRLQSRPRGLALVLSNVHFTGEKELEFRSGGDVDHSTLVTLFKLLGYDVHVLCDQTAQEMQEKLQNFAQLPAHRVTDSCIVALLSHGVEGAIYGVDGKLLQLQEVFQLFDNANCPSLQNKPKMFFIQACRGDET
Chain of Human Caspase 2 (P42575 348-452 limits assumed): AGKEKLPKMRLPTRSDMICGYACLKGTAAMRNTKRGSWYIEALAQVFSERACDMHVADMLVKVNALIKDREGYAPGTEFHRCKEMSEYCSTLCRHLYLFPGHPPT

COc1cccc2[nH]c(C(=O)N[C@@H](CC(C)C)C(=O)N[C@@H](C[C@@H]3CCNC3=O)C(=O)CO)cc12 [PF-00835231]
Initial Velocity ([1]; [Compound F2] 1.95312 nM): 0.9709 and 0.9956 and 0.9685 | Initial Velocity ([1]; [Compound F2] 3.90625 nM): 0.9706 and 0.9741 and 0.9413 | Initial Velocity ([1]; [Compound F2] 7.8125 nM): 0.919 and 0.9344 and 0.9288 | Initial Velocity ([1]; [Compound F2] 20 nM): 0.7972 and 0.7875 and 0.7775 | Initial Velocity ([1]; [Compound F2] 30 nM): 0.5859 and 0.5869 and 0.5914 | Initial Velocity ([1]; [Compound F2] 40 nM): 0.342 and 0.3124 and 0.3465 | Initial Velocity ([1]; [Compound F2] 50 nM): 0.1072 and 0.09971 and 0.1255 | Initial Velocity ([1]; [Compound F2] 60 nM): 0.03996 and 0.02999 and 0.0446 | Initial Velocity ([1]; [Compound F2] 80 nM): 0.0186 and 0.01858 and 0.02101 | Initial Velocity ([1]; [Compound F2] 100 nM): 0.01432 and 0.02363 and 0.01328 | Initial Velocity ([1]; [Compound F2] 400 nM): 0.004976 and 0.003329 and 0.004577 | Ki ([1]; mean ± SEM): 0.034 ± 0.079 nM | IC50 [2]: > 11 µM | IC50 [3]: 6 µM and 6.1 µM | IC50 [4]: > 33 µM | IC50 [5]: > 100 µM | IC50 [6]: > 33 µM | Percent of Control Activity ([7]; CYP 2B6, 0.1 µM, 30-Minute Preincubation, 0.1 µM): 95.8% | Percent of Control Activity ([7]; CYP 2B6, 0.1 µM, Zero-Minute Preincubation, 0.1 µM): 102.2% and 99.6% | Percent of Control Activity ([7]; CYP 2B6, 0.214 µM, 30-Minute Preincubation, 0.214 µM): 99.2% and 94.6% | Percent of Control Activity ([7]; CYP 2B6, 0.214 µM, Zero-Minute Preincubation, 0.214 µM): 97.5% and 98.9% | Percent of Control Activity ([7]; CYP 2B6, 0.979 µM, 30-Minute Preincubation, 0.979 µM): 92.8% and 97.7% | Percent of Control Activity ([7]; CYP 2B6, 0.979 µM, Zero-Minute Preincubation, 0.979 µM): 99.5% and 102.1% | Percent of Control Activity ([7]; CYP 2B6, 2.09 µM, Zero-Minute Preincubation, 2.09 µM): 101.6% | Percent of Control Activity ([7]; CYP 2B6, 4.48 µM, 30-Minute Preincubation, 4.48 µM): 102.3% and 98.3% | Percent of Control Activity ([7]; CYP 2B6, 4.48 µM, Zero-Minute Preincubation, 4.48 µM): 96.6% | Percent of Control Activity ([7]; CYP 2B6, 20.5 µM, 30-Minute Preincubation, 20.5 µM): 88.5% and 89.3% | Percent of Control Activity ([7]; CYP 2B6, 20.5 µM, Zero-Minute Preincubation, 20.5 µM): 90.2% and 87.9% | Percent of Control Activity ([7]; CYP 2B6, 43.8 µM, 30-Minute Preincubation, 43.8 µM): 89.3% and 86.6% | Percent of Control Activity ([7]; CYP 2B6, 43.8 µM, Zero-Minute Preincubation, 43.8 µM): 84.2% and 79.6% | Percent of Control Activity ([7]; CYP 2B6, 93.5 µM, 30-Minute Preincubation, 93.5 µM): 69.4% and 77.3% | Percent of Control Activity ([7]; CYP 2B6, 93.5 µM, Zero-Minute Preincubation, 93.5 µM): 73.2% and 72.0% | Percent of Control Activity ([7]; CYP 2B6, 200 µM, 30-Minute Preincubation, 200 µM): 59.5% and 60.0% | Percent of Control Activity ([7]; CYP 2B6, 200 µM, Zero-Minute Preincubation, 200 µM): 54.6% and 55.4% | activity at 0.1 µM [7, 13]: 102% | activity at 0.1 µM [7, 14]: 104% | activity at 0.214 µM [7, 13]: 103% | activity at 0.214 µM [7, 14]: 103% | activity at 0.979 µM [7, 13]: 100% | activity at 0.979 µM [7, 14]: 105% | activity at 2.09 µM [7, 13]: 101% | activity at 2.09 µM [7, 14]: 105% | activity at 4.48 µM [7, 13]: 103% | activity at 4.48 µM [7, 14]: 100% | activity at 20.5 µM [7, 13]: 91.3% | activity at 20.5 µM [7, 14]: 91.9% | activity at 43.8 µM [7, 13]: 87.1% | activity at 43.8 µM [7, 14]: 86.4% | activity at 93.5 µM [7, 13]: 73.5% | activity at 93.5 µM [7, 14]: 73.7% | activity at 200 µM [7, 13]: 59% | activity at 200 µM [7, 14]: 55.5% | IC50 ([7]; human, human liver microsomes, pH 7.4, probe bupropion (hydroxylation), at approximately KM): > 200 µM | EC50 ([8]; P-gp inhibitor 0 uM): 193 nM | EC50 ([8]; P-gp inhibitor 1 uM): 178 nM | EC90 ([8]; human lung carcinoma cells): 440 nM | logD at 1 h [9]: 1.7 | fm,CYP3A ([10]; Predicted from in vitro phenotyping data): 0.76 | CLint ([10]; Simcyp elimination input, Recombinant, CYP3A4, Pathway 1): 0.147 µL/min/pmol | CL renal ([10]; human): 50 mL/min | clearance ([10]; human, plasma): 417 mL/min | Cmin unbound exposure [11]: 1700 nM

COc1cccc2[nH]c(C(=O)N[C@@H](CC(C)C)C(=O)N[C@@H](C[C@@H]3CCNC3=O)C(=O)COP(=O)(O)O)cc12 [PF-07304814]
%unchanged in urine ([12]; dog IV, PF-07304814 […], PF-00835231 1.0mg/kg): < 0.1% | Total Concn, Mean Data ([12]; dog plasma, PF-07304814 prodrug dosed […] intravenous, time 8 h, mean, BLQ=0.1ng/mL): BLQ | Urine Concn ([12]; dog urine 4-8h, PF-07304814 prodrug dosed […] intravenous, individual dogs, BLQ=1ng/mL for urine): BLQ | clearance ([12]; CLp, dog IV (n=2, range), PF-07304814 […], PF-00835231 1.0mg/kg): 517 mL/min/kg | half-life ([12]; Terminal T1/2, dog IV (n=2, range), PF-07304814 […], PF-00835231 1.0mg/kg): 30 min | Vd ([12]; dog IV (n=2, range), PF-07304814 […], PF-00835231 1.0mg/kg): 9.3 L/kg | clearance ([12]; […], Clearance, Mean Data, PF-07304814 prodrug dosed […] intravenous, mean): 517 mL/min/kg | half-life ([12]; […], Half life, Mean Data, PF-07304814 prodrug dosed […] intravenous, mean): 30.6 min | Vd ([12]; […], Mean Data, PF-07304814 prodrug dosed […] intravenous, mean): 9.3 L/kg
